Test results published in PubChem BioAssay (NCI).
Several values for one entry are separate records, joined by “and”; a condition that tells them apart may be missing. Identical values can stand only once.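 Cultured in 96-well plates, cells were exposed to test compound for 48 hours across five concentrations. The concentration for 50% growth inhibition is given as GI50. Definition used: TGI = concentration required for complete inhibition of growth.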

What was measured:
Assay in all cases: NCI-60 cell line screen, 48 h
SK-MEL-2 melanoma = tested on: SK-MEL-2 melanoma
UACC-62 melanoma = tested on: UACC-62 melanoma
SK-MEL-5 melanoma = tested on: SK-MEL-5 melanoma
U251 CNS = tested on: U251 CNS
UACC-257 melanoma = tested on: UACC-257 melanoma
OVCAR-8 ovarian = tested on: OVCAR-8 ovarian
CAKI-1 renal = tested on: CAKI-1 renal
OVCAR-3 ovarian = tested on: OVCAR-3 ovarian
COLO 205 colon = tested on: COLO 205 colon
SF-295 CNS = tested on: SF-295 CNS

Row | Structure (SMILES) | TGI (SK-MEL-2 melanoma) | TGI (UACC-62 melanoma) | TGI (SK-MEL-5 melanoma) | TGI (U251 CNS) | TGI (UACC-257 melanoma) | TGI (OVCAR-8 ovarian) | TGI (CAKI-1 renal) | TGI (OVCAR-3 ovarian) | TGI (COLO 205 colon) | TGI (SF-295 CNS) | GI50 (SK-MEL-2 melanoma) [µM] | GI50 (UACC-62 melanoma) [µM] | GI50 (SK-MEL-5 melanoma) [µM] | GI50 (U251 CNS) [µM] | GI50 (UACC-257 melanoma) [µM] | GI50 (OVCAR-8 ovarian) [µM] | GI50 (CAKI-1 renal) [µM] | GI50 (OVCAR-3 ovarian) [µM] | GI50 (COLO 205 colon) [µM]
1 | O=C(NCCC1CN(C(=O)OCc2ccccc2)c2ccccc21)OCc1ccccc1 (centres undefined) | > 100 µM | > 100 µM | > 100 µM | > 100 µM | > 100 µM | > 100 µM | > 100 µM | > 100 µM | > 100 µM | > 100 µM |  |  |  |  |  |  |  |  | 
2 | COc1cc(/C=N/c2nc3cc4sc(/N=C/c5cc(OC)c(OC)c(OC)c5)nc4cc3s2)cc(OC)c1OC | > 100 µM | > 100 µM | > 100 µM | > 100 µM | > 100 µM | > 100 µM | > 100 µM | > 100 µM | > 100 µM | > 100 µM |  |  |  |  |  |  |  |  | 
3 | CC1C(=O)CC(c2cccs2)N(N=O)C1c1cccs1 (centres undefined) | > 92.3 µM | > 100 µM | > 100 µM | > 100 µM | > 100 µM | > 100 µM | > 100 µM | > 79.5 µM | > 100 µM | > 100 µM |  |  |  |  |  |  |  |  | 
4 | CCCCCCCCCCCCCC1=C(O)C(=O)C(CC2=C(O)C(=O)C(CCCCCCCCCCCCC)=C(O)C2=O)=C(O)C1=O | > 100 µM | > 100 µM | > 100 µM | > 100 µM | > 100 µM | > 100 µM | > 100 µM | > 100 µM | > 100 µM | > 100 µM |  |  |  |  |  |  |  |  | 
5 | COc1ccc(-c2nc3c(nc2-c2ccc(OC)cc2)C(N)=NS(=O)(=O)N3)cc1 | > 100 µM | > 100 µM | > 100 µM | > 100 µM | > 100 µM | > 100 µM | > 100 µM | > 100 µM | > 100 µM | > 100 µM |  |  |  |  |  |  |  |  | 
6 | Cc1[nH]c(=O)[nH]c(=O)c1/C=C/C(=O)NC(CO)CS(=O)CS(C)=O (centres undefined) | 59.2 µM | 56.3 µM | 76.9 µM | 39.6 µM | 151 µM | 122 µM | 13.3 µM | 31.1 µM | 132 µM | 77.5 µM |  |  |  |  |  |  |  |  | 
7 | CCN(CC)CC[n+]1ccc2c(C)c3[nH]c4ccc(O)cc4c3c(C)c2c1 | 32 µM and 54.2 µM | 23.1 µM and 48.9 µM | 12.6 µM and 27.1 µM | 9.12 µM and 11.1 µM | 43.9 µM and 91.6 µM | 44.6 µM and 13.3 µM | 49.6 µM and 16.3 µM | 57.9 µM and 51.9 µM | 17.4 µM and 31 µM | 30.1 µM and 28.4 µM | 20.8 | 5.41 | 4.5 | 0.624 | 24.2 | 1.23 | 3.41 | 6.62 | 2.6
8 | CCOC(=O)Cn1c2ccc(Br)cc2c2nc3ccccc3nc21 | > 100 µM | > 100 µM | > 100 µM | > 100 µM | > 100 µM | > 100 µM | > 100 µM | > 100 µM | > 100 µM | > 100 µM |  |  |  |  |  |  |  |  | 
9 | CC(C)CCCC(C)[C@H]1CC[C@H]2n3c(nc4ccccc43)CCC[C@]12C (some centres undefined) | 35.5 µM | 30.8 µM | 32.8 µM | 42.6 µM | 38.1 µM | 37.2 µM | 34.3 µM | 39 µM | 23.7 µM | 30.7 µM |  |  |  |  |  |  |  |  | 
10 | CCOC(=O)CCC(C(=O)OCC)n1nc2ccc(Nc3c(C)[n+]([O-])c4cc(F)c(OCC)cc4[n+]3[O-])cc2n1 (centres undefined) | > 100 µM | > 100 µM | > 100 µM | 62.7 µM | > 100 µM | > 100 µM | > 100 µM | > 100 µM | > 100 µM | > 100 µM |  |  |  |  |  |  |  |  | 
11 | CON(C)C(=O)[C@H]1C[C@@]1(C)CO | > 100 µM | > 100 µM | > 100 µM | > 100 µM | > 100 µM | > 100 µM | > 100 µM | > 100 µM | > 100 µM | > 100 µM |  |  |  |  |  |  |  |  | 
12 | CCc1n[nH]c(=O)n1/N=C(\C)c1ccc([N+](=O)[O-])cc1 | > 100 µM | > 100 µM | > 100 µM | > 100 µM | > 100 µM | > 100 µM | > 100 µM | > 100 µM | > 100 µM | > 100 µM |  |  |  |  |  |  |  |  | 
13 | C=C1C(=O)O[C@@H]2/C=C(\C)CC/C=C(\C)CC[C@@]12O | 25.7 µM | 23.6 µM | 15.5 µM | 19.7 µM | 31.7 µM | 5.18 µM | 2.79 µM | 6.43 µM | 4.3 µM | 25.2 µM |  |  |  |  |  |  |  |  | 
14 | CNC1Cc2c[nH]c3cccc(c23)C12C=C(C)C(=O)O2 (centres undefined) | > 100 µM | > 100 µM | > 100 µM | > 100 µM | > 100 µM | > 100 µM | > 100 µM | > 100 µM | > 100 µM | > 100 µM |  |  |  |  |  |  |  |  | 
15 | OCC(O)CNc1ncnc2ccccc12 (centres undefined) | > 100 µM | > 100 µM | > 100 µM | > 100 µM | > 100 µM | > 100 µM | > 100 µM | > 100 µM | > 100 µM | > 100 µM |  |  |  |  |  |  |  |  | 
16 | CC(C)(C)c1ccc2c(c1)C#Cc1cc(C(C)(C)C)ccc1OCCCO2 | > 100 µM | > 100 µM | > 100 µM | > 100 µM | > 100 µM | > 100 µM | > 100 µM | > 100 µM | > 100 µM | > 100 µM |  |  |  |  |  |  |  |  | 
